In patent publication US11441029B1, “Packaging films, and methods of preparation thereof” (King Abdulaziz University, priority 2022, dated 2022):

System: gram-positive and gram-negative bacteria
Assay: Antimicrobial activity of films, bacteria not specified at the place
Format: cell-based
Protocol: Active cultures were prepared by inoculating freshly cultured bacteria or pure colony (24 hours (h)) into lysogeny broth (LB) broth, then incubated in a shaker for 24 h at 30° C. with 200 revolutions per minute (rpm). The optical density (OD) for each culture was set to 0.05, equivalent to 1-2×10^5 colony forming units/millilitre (CFU/mL) by adding LB broth. […] Thereafter, re-suspension was carried out for each sample using 4.6 mL of 0.85 wt. % sodium chloride. Serial dilution was conducted, and 100 microlitre (μL) for each dilution was transferred to LB agar plates. Then, those agar plates were allowed to undergo incubation for 24 h at 30° C. Gentamicin was used as a positive control, and pure PBS film were used as negative control for the microbial culture. […] The whole antimicrobial process was conducted in triplicate to obtain average values. The microbial population was calculated as log CFU per mL sample, and the actual number in each dilution was determined for dishes containing 30-300 colonies using Equation 1 as below: [formula] where C refers to total counts of bacteria in all retained dishes; V refers to volume used for sample dilution; n1 refers to number of retained dishes in first dilution; n2 refers to number of retained dishes in second dilution; D refers to dilution factor of first dilution.

[O-]n1ccccc1=S.[O-]n1ccccc1=S.[Zn+2] [SAN, zinc, bis[1-(hydroxy-.kappa.O)-2(1H)-pyridinethionato-.kappa.S2]-,(T-4)-] was tested, and the “antimicrobial activity (general statement)” value was “exhibited antimicrobial effects”.
